Measurements published in US20100273189A1, “NON SEPARATION ASSAYS WITH SELECTIVE SIGNAL INHIBITORS” (BECKMAN COULTER, INC., priority 2009, published 2010).

Assays:
[1] = system: cTnI; experiment: Comparison of particle types in cTnI assay, with and without ascorbic acid; format: biochemical; settings: 150 μM ascorbic acid; each particle system; highest calibrator level; in words
Procedure: Signal generation with Silica and PMMA particles. A comparison of Dynal M-280, 3 um CML, 6 um CML, PMMA, silica and LodeStars particles was conducted using the cTnI assay described above. The preparation of each particle, bearing a coating of streptavidin, is described in the foregoing examples. Ascorbic acid, when present, was at 150 μM.

[2] = system: cTnI; experiment: cTnI assay with various magnetic particles, without and with ascorbic acid 150 μM; format: biochemical
Text: The effectiveness of ascorbic acid in improving assay performance in microparticle formats was investigated using a cTnI analyte with various magnetic particles. Magnetic particles evaluated included LodeStars PMP, latex PMP and carboxylate-modified polystyrene latex PMP. “Lot B Magnetic Particle” are 6.2 μm diameter carboxyl PMPs (Bangs Laboratories, Fishers, Ind.). “Lot D Magnetic Particle” are 8.1 μm diameter carboxyl PMPs (Bangs Laboratories). “Lot F Latex Particle” are 3.1 μm diameter carboxyl PMPs (Seradyn Products, Thermo-Fisher, Indianapolis, Ind.). “CML PMP” are […] diameter carboxylate modified latex particles (Invitrogen, Carlsbad, Calif.). LodeStars PMP were labeled with AK4 and biotin by EDC coupling and overcoated with streptavidin following the general protocol of Example 3. Lots B, D, and F and CML PMP were labeled with AK-BSA-biotin according to Example 1. The particles were then coated with streptavidin and bound to biotin-labeled anti-cTnI.
In an initial experiment, the cTnI assay was conducted without ascorbic acid in the reaction mix.
In this case, LodeStars particles retain much more specific signal than the other particle types, even while the background decreases almost […].

[3] = system: beta hCG; experiment: Beta hCG assay, AK-Ab1 particle + HRP-Ab2 conjugate; format: biochemical, human; settings: ascorbic acid employed
Procedure: This example describes a method of detecting beta-human chorionic gonadotrophin (beta hCG) using an AK-Abl particle prepared as set forth in Example 3 and a HRP-Ab2 conjugate prepared as set forth in Example 4 where Ab2 represents an antibody to beta hCG. This method employed ascorbic acid to decrease background signal.
(§1) HRP-Ab2 conjugate suspensions were prepared at 1.0 μg/mL and contained either 0 or 1 mM ascorbic acid. Samples consisted of human serum samples with the indicated mounts of beta hCG added or no beta hCG as a control. The test procedure consisted of adding 20 μL of 1.0 μg/mL HRP-Ab2 conjugate and 30 μL of MES buffer containing 1 mg/mL BSA and 1 mg/mL MIgG, pH 5.9 to the reaction vessel. Next, 25 μL of patient serum sample was added, followed by 25 μL of 10 mg/mL AK-Abl conjugate suspension thereby obtaining 100 μL of total volume in the reaction vessel. After 15.2 minutes, 100 μL of trigger solution A was added to the reaction vessel and the light intensity was recorded on the modified DxI instrument. Chemiluminescence intensity is expressed in Relative Light Units (RLU).

[4] = system: myoglobin; experiment: Myoglobin assay, AK-Ab1 particle + HRP-Ab2 conjugate; format: biochemical; settings: ascorbic acid employed
Procedure: This example describes a method of detecting myoglobin using a AK-Abl particle prepared as set forth in Example 3 and a HRP-Ab2 conjugate prepared as set forth in Example 4 where Ab2 represents an antibody to myoglobin. This method employed ascorbic acid to decrease background signal.
as §1, with “of myoglobin” for “of beta hCG”, “no myoglobin” for “no beta hCG”, “30 μl” for “30 μL”, “of 5.0” for “of 10”, “minutes, […]” for “minutes, 100 μL”

## O=C1O[C@H]([C@@H](O)CO)C(O)=C1O [Ascorbic Acid, Ascorbic acid]
[1]
  S/S0: markedly improved S/S0
[2]; ascorbic acid 150 μM prior to addition of trigger, LodeStars particles
  background decrease: ~300%
[2]; ascorbic acid in the assay reaction mixture, in words
  assay sensitivity: significantly improves the assay sensitivity
[3]; S0, beta hCG 0 IU/mL
  RLU: 1,031 RLU
[3]; S1, beta hCG 4.35 IU/mL
  RLU: 7,288 RLU
  S/S0: 7
[3]; S2, beta hCG 20.81 IU/mL
  RLU: 35,320 RLU
  S/S0: 34
[3]; S3, beta hCG 127.285 IU/mL
  RLU: 298,108 RLU
  S/S0: 289
[3]; S4, beta hCG 413.455 IU/mL
  RLU: 1,293,751 RLU
  S/S0: 1,255
[3]; S5, beta hCG 775.805 IU/mL
  RLU: 2,225,779 RLU
  S/S0: 2,159
[4]; S0, 11.4 ng/mL
  RLU: 1,183 RLU
[4]; S1, 56.3 ng/mL
  RLU: 5,557 RLU
  S/S0: 5
[4]; S2, 221 ng/mL
  RLU: 31,947 RLU
  S/S0: 27
[4]; S3, 864 ng/mL
  RLU: 190,076 RLU
  S/S0: 161
[4]; S4, 2016 ng/mL
  RLU: 1,315,465 RLU
  S/S0: 1,048
[4]; S5, 3136 ng/mL
  RLU: 4,667,341 RLU
  S/S0: 3,945
